Experimental data published in patent US20230172132A1, “A METHOD FOR […] CONTENT IN A CROP PLANT” (SENSIENT COLORS, LLC, priority 2020, published 2023).

What was measured:
[1] = system: red beet (Beta vulgaris); test: Greenhouse testing: foliar spray of Ethephon on crop plants, pigment content of roots at harvest; type: in vivo; details: for Betanin / Vulgaxanthin: greenhouse, spray rate not given
Protocol: Planting of varieties were staggered across several weeks to vary maturity for one spray. Two spray rates were administered across all plants on one spray date ([…]). Harvesting was done 3-4 weeks after spray. Initial visualization was performed prior to crop samples sent to laboratory for evaluation.

[2] = system: beet plant; test: Pre-harvest foliar spraying of ethylene-releasing compound on beet leaves, betalain concentration of roots versus unsprayed controls; type: in vivo, Beta vulgaris
Excerpt: In one embodiment, the method comprises the pre-harvest foliar spraying of an ethylene-releasing compound on a beet plant, wherein the pre-harvest foliar spraying of an ethylene-releasing compound leaves the mean betalain concentration in the roots of the treated plants increased by more than 200% when compared to controls without any spraying.
The method described herein may be used for commercially-relevant, large scale production of a betalain pigment, e.g., the large scale isolation from a beet crop plant. Accordingly, it may be that the isolation of betalains of step (iii) is done from at least 15 different harvested beet plants, more preferably from at least 100 different harvested beet plants, even more preferably from at least 500 different harvested beet plants, or such as from at least 1000 different harvested beet plants. It is evident that when at least 15 different harvested beet plants are used in isolation step (iii), then foliar spraying of ethylene-releasing compound (e.g., 2-Chloroethylphosphonic acid) of step (i) has been done on at least 15 different beet plants and in step (ii), at least 15 different crop plants have been harvested. As discussed above, the present inventors identified that by pre-harvest foliar spraying of 2-Chloroethylphosphonic acid (e.g., 2-Chloroethylphosphonic acid) on beet leaves the mean betalain concentration of treated plants increased by an increased amount when compared to controls without any spraying.
Preferably, the amount of isolated betalain pigment in step (iii) of the method is an amount of betalain pigment which is at least 15% higher (w/w), more preferably at least 20/a higher (w/w), even more preferably at least 25% higher (w/w), and most preferably at least 35% higher (w/w), as compared to the amount of betalain pigment that is isolated in a control experiment without use of the ethylene-releasing compound in step (i). The purpose of a control experiment is to analyze the effect of using ethylene-releasing compound (e.g. 2-Chloroethylphosphonic acid). […]

[3] = harvest 7, 10, 13, 16, 19, 22, 25, 26, 29 and 35 weeks after planting, every harvest point

What does the source list for O=P(O)(O)CCCl [Ethephon, 2-Chloroethylphosphonic acid]?
Betanin ([1]; beet variety Chioggia): 320 mg/kg, dry basis; Vulgaxanthin ([1]; beet variety Chioggia): 380 mg/kg, dry basis; Anthocyanin levels ([1]; carrots, beets and radishes, spray 120 g/h and 360 g/h, harvest 3-4 weeks after spray): Enhanced; Betanin ([1]; red beet variety Nochowski): 9,400 mg/kg, dry basis; Vulgaxanthin ([1]; red beet variety Nochowski): 6,700 mg/kg, dry basis; Betanin ([1]; red beet variety Red Cloud): 6,000 mg/kg, dry basis; Vulgaxanthin ([1]; red beet variety Red Cloud): 3,300 mg/kg, dry basis; Betanin ([1]; red beet variety Ruby Queen): 3,500 mg/kg, dry basis; Vulgaxanthin ([1]; red beet variety Ruby Queen): 800 mg/kg, dry basis; mean betanin concentration of treated roots [2, 3]: higher; mean vulgaxanthin concentration of treated roots [2, 3]: higher; mean betalain concentration of treated plants compared to controls without any spraying ([2]; pre-harvest foliar spraying on beet leaves): increased
